Data from patent publication US20120095211A1, “SUBSTITUTED PROLINE INHIBITORS OF HEPATITIS C VIRUS REPLICATION” (InterMune, Inc., priority 2010, published 2012).
pEC50, pIC50: −log10 of the molar value. Read-outs that look alike come from different tables or passages of the source.

Legend:
NS3/NS4 complexes = NS3/NS4 complexes (Hepatitis C virus genotype 1a, UniProt P27958); experiment: NS3/NS4 inhibition assay (inhibitory concentrations of test compounds); format: biochemical; conditions: NS3-NS4 activity; 23° C., pH 7.5, 25 μM NS4A peptide
NS3/NS4 complexes, sequence (P27958 1658-1711): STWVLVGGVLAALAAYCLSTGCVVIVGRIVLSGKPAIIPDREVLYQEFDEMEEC
NS3/NS4 complexes, sequence (P27958 1027-1657): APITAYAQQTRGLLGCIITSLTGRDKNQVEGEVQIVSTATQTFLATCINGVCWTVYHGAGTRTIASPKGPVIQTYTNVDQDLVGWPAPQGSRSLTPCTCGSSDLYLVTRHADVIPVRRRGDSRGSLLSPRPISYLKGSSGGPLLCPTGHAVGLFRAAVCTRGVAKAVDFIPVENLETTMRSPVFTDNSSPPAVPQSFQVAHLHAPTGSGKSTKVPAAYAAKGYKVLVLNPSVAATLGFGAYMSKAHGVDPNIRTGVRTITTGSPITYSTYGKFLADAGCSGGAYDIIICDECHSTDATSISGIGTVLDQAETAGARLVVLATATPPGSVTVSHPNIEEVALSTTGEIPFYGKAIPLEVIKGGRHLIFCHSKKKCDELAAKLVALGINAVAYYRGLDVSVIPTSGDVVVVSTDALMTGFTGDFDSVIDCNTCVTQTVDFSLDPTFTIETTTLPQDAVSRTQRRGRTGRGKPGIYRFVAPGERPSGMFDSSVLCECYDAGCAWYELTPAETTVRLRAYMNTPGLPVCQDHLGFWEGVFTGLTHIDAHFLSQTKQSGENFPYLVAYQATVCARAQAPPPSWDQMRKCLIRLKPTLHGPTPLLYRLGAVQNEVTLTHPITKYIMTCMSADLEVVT
Text: (§1) NS3-NS4 inhibition activity can be determined using known assay methods. For example, NS3/NS4 complexes may be formed and inhibitory concentrations of test compounds determined as described in U.S. Patent Application Publication Number 2007/0054842 paragraph numbers 1497-1509, which is incorporated herein by reference in its entirety. Similarly, hepatitis C replicon EC50 may be determined using known assay methods such as described in U.S. Patent Application Publication Number 2007/0054842 paragraph numbers 1510-1515, which is incorporated herein by reference in its entirety. Assays may be conducted at ambient temperature (23° C.) in assay buffer containing 50 mM Tris-HCl, pH 7.5, 15% glycerol, 0.6 mM Lauryldimethylamine Oxide (LDAO), 25 μM NS4A peptide, and 10 mM Dithiothreitol (DTT).

hepatitis C replicon = hepatitis C replicon EC50 assay; format: cell-based, hepatitis C virus (HCV); conditions: Hepatitis C virus
Text: as §1

[1] = rcm bond
[2] = hepatitis C replicon, read-out: EC50

| SMILES | pIC50 (NS3/NS4 complexes) | pEC50 (hepatitis C replicon; [2]) | further results |
| --- | --- | --- | --- |
| C=C[C@@H]1C[C@]1(NC(=O)[C@@H]1[C@H](C)[C@@H](Oc2cc(-c3nc(C(C)C)cs3)nc3c(C)c(OC)ccc23)CN1C(=O)[C@@H](N)C(C)(C)C)C(=O)NS(=O)(=O)C1CC1 [Compound 207] | > 8.00 | < 7.00 | – |
| COc1cnc(O[C@H]2CN3C(=O)[C@@H](NC(=O)OC(C)(C)C)CCCCC/C=C\[C@@H]4C[C@@]4(C(=O)NS(=O)(=O)C4(C)CC4)NC(=O)[C@@H]3[C@@H]2C)c2cc(Cl)ccc12 [Compound 111] | > 8.00 | > 8.00 | – |
| CC(C)n1c(O[C@H]2CN3C(=O)[C@@H](NC(=O)OC(C)(C)C)CCCCC/C=C\[C@@H]4C[C@@]4(C(=O)NS(=O)(=O)C4(C)CC4)NC(=O)[C@@H]3[C@@H]2C)nc2c(-c3nc(C4CCCCC4)cs3)cccc21 [Compound 107] | > 8.00 | 7.00 to 8.00 | – |
| CCOC(=O)[C@@]12C[C@H]1C=CCCCCC[C@H](NC(=O)OC(C)(C)C)C(=O)N1C[C@H](Oc3cc(-c4nc(C(C)C)cs4)nc4c(C)c(OC)ccc34)[C@@H](C)[C@H]1C(=O)N2 | – | – | ring closure, yield of all isomers ([1]; from C=CCCCCC[C@H](NC(=O)OC(C)(C)C)C(=O)N1C[C@H](Oc2cc(-c3nc(C(C)C)cs3)nc3c(C)c(OC)ccc23)[C@@H](C)[C@H]1C(=O)N[C@]1(C(=O)OCC)C[C@H]1C=C, Zhan catalyst, toluene, 11.67 mM, 70.0 °C, 2.0 h): 75% |
| COc1ccc2c(O[C@H]3CN4C(=O)[C@@H](NC(=O)OC(C)(C)C)CCCCCC=C[C@@H]5C[C@@]5(C(=O)NS(=O)(=O)C5(C)CC5)NC(=O)[C@@H]4C3(C)C)cc(-c3nc(C(C)C)cs3)nc2c1C | – | – | ring closure, yield of all isomers ([1]; from C=CCCCCC[C@H](NC(=O)OC(C)(C)C)C(=O)N1C[C@H](Oc2cc(-c3nc(C(C)C)cs3)nc3c(C)c(OC)ccc23)C(C)(C)[C@H]1C(=O)N[C@]1(C(=O)NS(=O)(=O)C2(C)CC2)C[C@H]1C=C, Zhan catalyst, toluene, 5.9 mM, 65.0 °C, 1.33 h): 56% |
| COc1ccc2c(O[C@H]3CN4C(=O)[C@@H](NC(=O)OC(C)(C)C)CCCCC/C=C\[C@@H]5C[C@@]5(C(=O)NS(=O)(=O)C5(C)CC5)NC(=O)[C@@H]4[C@H]3C)cc(-c3nc(C(C)C)cs3)nc2c1C [Compound 106] | 7.00 to 8.00 | < 7.00 | – |
| C=C[C@@H]1C[C@]1(NC(=O)[C@@H]1[C@H](C)[C@@H](Oc2cc(-c3nc(C(C)C)cs3)nc3c(C)c(OC)ccc23)CN1C(=O)C(N)C(C)(C)C)C(=O)NS(=O)(=O)C1(C)CC1 (some centres unmarked) [Compound 203] | > 8.00 | 7.00 to 8.00 | – |
| C=C[C@@H]1C[C@]1(NC(=O)[C@@H]1[C@@H](C)[C@@H](Oc2cc(-c3nc(C(C)C)cs3)nc3c(C)c(OC)ccc23)CN1C(=O)[C@@H](NC(=O)OC(C)(C)C)C(C)(C)C)C(=O)NS(=O)(=O)C1(C)CC1 [Compound 208] | 7.00 to 8.00 | – | pEC50 (hepatitis C replicon): < 7.00 |
| CC(C)n1c(O[C@H]2CN3C(=O)[C@@H](NC(=O)OC(C)(C)C)CCCCC/C=C\[C@@H]4C[C@@]4(C(=O)NS(=O)(=O)C4CC4)NC(=O)[C@@H]3[C@@H]2C)nc2c(-c3nc(C4CCCCC4)cs3)cccc21 [Compound 109] | > 8.00 | 7.00 to 8.00 | – |
| CC(C)n1c(O[C@H]2CN3C(=O)[C@@H](NC(=O)OC(C)(C)C)CCCCCC=C[C@@H]4C[C@@]4(C(=O)NS(=O)(=O)C4(C)CC4)NC(=O)[C@@H]3[C@@H]2C)nc2c(-c3nc(C4CCCCC4)cs3)cccc21 | – | – | ring closure, yield of all isomers ([1]; from C=CCCCCC[C@H](NC(=O)OC(C)(C)C)C(=O)N1C[C@H](Oc2nc3c(-c4nc(C5CCCCC5)cs4)cccc3n2C(C)C)[C@@H](C)[C@H]1C(=O)N[C@]1(C(=O)NS(=O)(=O)C2(C)CC2)C[C@H]1C=C, Zhan catalyst, toluene, 5.16 mM, 65.0 °C, 1.0 h): 53.9% |
| C=C[C@@H]1C[C@]1(NC(=O)[C@@H]1[C@H](C)[C@@H](Oc2ncc(OC)c3ccc(Cl)cc23)CN1C(=O)[C@@H](NC(=O)OC(C)(C)C)C(C)(C)C)C(=O)NS(=O)(=O)C1(C)CC1 [Compound 211] | > 8.00 | > 8.00 | – |
| C=C[C@@H]1C[C@]1(NC(=O)[C@@H]1[C@@H](C)[C@@H](Oc2cc(-c3nc(C(C)C)cs3)nc3c(C)c(OC)ccc23)CN1C(=O)[C@@H](N)C(C)(C)C)C(=O)NS(=O)(=O)C1(C)CC1 [Compound 212] | < 7.00 | – | – |
| COc1cnc(O[C@H]2CN3C(=O)[C@@H](NC(=O)OC(C)(C)C)CCCCC/C=C\[C@@H]4C[C@@]4(C(=O)O)NC(=O)[C@@H]3[C@@H]2C)c2cc(Cl)ccc12 [Compound 110] | > 8.00 | < 7.00 | – |
| C=C[C@@H]1C[C@]1(NC(=O)[C@@H]1[C@H](C)[C@@H](Oc2ncc(OC)c3ccc(Cl)cc23)CN1C(=O)[C@@H](NC(=O)OC(C)(C)C)C(C)(C)C)C(=O)O [Compound 210] | 7.00 to 8.00 | < 7.00 | – |
| CCOC(=O)[C@@]12C[C@H]1C=CCCCCC[C@H](NC(=O)OC(C)(C)C)C(=O)N1C[C@H](Oc3ncc(OC)c4ccc(Cl)cc34)[C@@H](C)[C@H]1C(=O)N2 | – | – | ring closure, yield of all isomers ([1]; from C=CCCCCC[C@H](NC(=O)OC(C)(C)C)C(=O)N1C[C@H](Oc2ncc(OC)c3ccc(Cl)cc23)[C@@H](C)[C@H]1C(=O)N[C@]1(C(=O)OCC)C[C@H]1C=C, Hoveyda-Grubbs catalyst, 1,2-dichloroethane, 0.8 mM, 12.0 h): 92% |
| COc1ccc2c(O[C@H]3CN4C(=O)[C@@H](NC(=O)OC(C)(C)C)CCCCC/C=C\[C@@H]5C[C@@]5(C(=O)NS(=O)(=O)C5(C)CC5)NC(=O)[C@@H]4[C@@H]3C)cc(-c3nc(C(C)C)cs3)nc2c1C [Compound 102] | > 8.00 | > 8.00 | – |
| COc1ccc2c(O[C@H]3CN4C(=O)[C@@H](NC(=O)OC(C)(C)C)CCCCCC=C[C@@H]5C[C@@]5(C(=O)NS(=O)(=O)C5(C)CC5)NC(=O)[C@@H]4[C@@H]3C)cc(-c3nc(C(C)C)cs3)nc2c1C | – | – | ring closure, yield of all isomers ([1]; from C=CCCCCC[C@H](NC(=O)OC(C)(C)C)C(=O)N1C[C@H](Oc2cc(-c3nc(C(C)C)cs3)nc3c(C)c(OC)ccc23)[C@@H](C)[C@H]1C(=O)N[C@]1(C(=O)NS(=O)(=O)C2(C)CC2)C[C@H]1C=C, Zhan catalyst, toluene, 5.9 mM, 65.0 °C, 0.5 h): 68% |
| COc1ccc2c(O[C@H]3CN4C(=O)[C@@H](NC(=O)OC(C)(C)C)CCCCC/C=C\[C@@H]5C[C@@]5(C(=O)NS(=O)(=O)C5(C)CC5)NC(=O)[C@@H]4C3(C)C)cc(-c3nc(C(C)C)cs3)nc2c1C [Compound 101] | 7.00 to 8.00 | < 7.00 | – |
| C=C[C@@H]1C[C@]1(NC(=O)[C@@H]1[C@H](C)[C@@H](Oc2cc(-c3nc(C(C)C)cs3)nc3c(C)c(OC)ccc23)CN1C(=O)[C@@H](Nc1cccc(C(F)(F)F)c1)C(C)(C)C)C(=O)NS(=O)(=O)C1(C)CC1 [Compound 209] | > 8.00 | 7.00 to 8.00 | – |
| CCOC(=O)[C@@]12C[C@H]1C=CCCCCC[C@H](NC(=O)OC(C)(C)C)C(=O)N1C[C@H](Oc3nc4c(-c5nc(C6CCCCC6)cs5)cccc4n3C(C)C)[C@@H](C)[C@H]1C(=O)N2 | – | – | ring closure, yield of all isomers ([1]; from C=CCCCCC[C@H](NC(=O)OC(C)(C)C)C(=O)N1C[C@H](Oc2nc3c(-c4nc(C5CCCCC5)cs4)cccc3n2C(C)C)[C@@H](C)[C@H]1C(=O)N[C@]1(C(=O)OCC)C[C@H]1C=C, Hoveyda-Grubbs catalyst, 1,2-dichloroethane, 0.96 mM): 83% |
| C=C[C@@H]1C[C@]1(NC(=O)[C@H]1N(C(=O)C(NC(=O)OC(C)(C)C)C(C)(C)C)C[C@H](Oc2cc(-c3nc(C(C)C)cs3)nc3c(C)c(OC)ccc23)C1(C)C)C(=O)NS(=O)(=O)C1(C)CC1 (some centres unmarked) [Compound 202] | < 7.00 | < 7.00 | – |
| COc1ccc2c(O[C@H]3CN4C(=O)[C@@H](NC(=O)OC(C)(C)C)CCCCC/C=C\[C@@H]5C[C@@]5(C(=O)NS(=O)(=O)C5CC5)NC(=O)[C@@H]4[C@@H]3C)cc(-c3nc(C(C)C)cs3)nc2c1C [Compound 103] | > 8.00 | > 8.00 | – |
| COc1ccc2c(O[C@H]3CN4C(=O)[C@@H](N)CCCCC/C=C\[C@@H]5C[C@@]5(C(=O)NS(=O)(=O)C5(C)CC5)NC(=O)[C@@H]4[C@@H]3C)cc(-c3nc(C(C)C)cs3)nc2c1C [Compound 104] | > 8.00 | 7.00 to 8.00 | – |
| C=C[C@@H]1C[C@]1(NC(=O)[C@@H]1[C@H](C)[C@@H](Oc2cc(-c3nc(C(C)C)cs3)nc3c(C)c(OC)ccc23)CN1C(=O)[C@@H](NC(=O)OC(C)(C)C)C(C)(C)C)C(=O)NS(=O)(=O)C1(C)CC1 [Compound 204] | > 8.00 | > 8.00 | – |
| COc1ccc2c(O[C@H]3CN4C(=O)[C@@H](NC(=O)OC(C)(C)C)CCCCCC=C[C@@H]5C[C@@]5(C(=O)NS(=O)(=O)C5(C)CC5)NC(=O)[C@@H]4[C@H]3C)cc(-c3nc(C(C)C)cs3)nc2c1C | – | – | ring closure, yield of all isomers ([1]; from C=CCCCCC[C@H](NC(=O)OC(C)(C)C)C(=O)N1C[C@H](Oc2cc(-c3nc(C(C)C)cs3)nc3c(C)c(OC)ccc23)[C@H](C)[C@H]1C(=O)N[C@]1(C(=O)NS(=O)(=O)C2(C)CC2)C[C@H]1C=C, Zhan catalyst, 70.0 °C, 0.5 h): 59% |
| C=C[C@@H]1C[C@]1(NC(=O)[C@@H]1[C@H](C)[C@@H](Oc2cc(-c3nc(C(C)C)cs3)nc3c(C)c(OC)ccc23)CN1C(=O)[C@@H](NC(=O)OC(C)(C)C)C(C)(C)C)C(=O)NS(=O)(=O)C1CC1 [Compound 205] | > 8.00 | > 8.00 | – |
